According to patent publication US9352015B2, “Antimicrobial peptides” (priority 2009, dated 2016):
Values after ≈ are worked out from the molar mass of the structure shown. Where two headings read alike, the source gives them in different places.

Experiments:
[1] = Hemolytic activity against human erythrocytes (HC50 / MHC, microtiter dilution); format: cell-based; conditions: 1% human erythrocytes, pH 7.4
Protocol: (§1) Hemoglobin release was determined spectrophotometrically at 570 nm. The hemolytic activity was determined as the peptide concentration that caused 50% hemolysis of erythrocytes after 18 h (HC50). […] HC50 was determined by a plot of peptide concentration versus percent lysis.

human erythrocytes = assay: as above; format: cell-based
Protocol: as §1

Acinetobacter baumannii = format: cell-based; conditions: for Acinetobacter baumannii MICGM: geometric mean, 11 different isolates, 24 hours at 37° C.
Outline: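 Microtiter broth dilution in triplicate, mainly LB no-salt medium (MH or BHI in some cases), peptides serially diluted, final inoculum 5×10^5 CFU/ml (1×10^5 CFU/ml in MH variant); 24 h at 37° C. MIC is the lowest peptide concentration inhibiting growth, given in micromolar against clinical isolates.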

[2] = test system: Methicillin Resistant Staphylococcus aureus (MRSA) and Staphylococcus aureus; format: cell-based
Outline: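 MICs by microtiter broth dilution in triplicate determinations, mostly LB no-salt medium (sometimes MH or BHI), final inoculum 5×10^5 CFU/ml (1×10^5 CFU/ml in the MH variant), 24 h at 37 °C. MIC is the lowest peptide concentration inhibiting growth; tested on 20 clinical MRSA and S. aureus isolates.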

Pseudomonas aeruginosa = conditions: geometric mean, 6 different isolates, 24 hours at 37° C.
[3] = Circular dichroism spectroscopy (helical structure); format: physicochemical

Compound | HC50 at 18 h ([1]; human) [µM] | Hemolytic activity HC50 (human erythrocytes) [µM] | Antimicrobial Activity MIC against A. baumannii (Acinetobacter baumannii) [µM] | MIC GM (geometric mean) (Acinetobacter baumannii) [µM] | Acinetobacter baumannii MICGM (Acinetobacter baumannii) [µM] | MIC GM (geometric mean) [2] [µM] | Pseudomonas aeruginosa MICGM (Pseudomonas aeruginosa) [µM] | HC50 at 18 h ([1]; human erythrocytes, concentration of peptide that results in 50% hemolysis after 18 hours at 37° C., read-out: Hemolytic activity HC50) [µM] | Hemolytic activity HC50 (human erythrocytes; 50% hemolysis after 18 hours at 37° C.) [µM] | Fold less hemolytic than D1 (human erythrocytes) | Fold more active than D1 against A. baumannii (Acinetobacter baumannii) [fold] | [θ]222 molar ellipticity ([3]; 50% TFE, 5° C.) | [θ]222 molar ellipticity ([3]; benign conditions (100 mM KCl, 50 mM aq. PO4, pH 7))
CC[C@@H](C)[C@@H](NC(=O)[C@@H](C)NC(=O)[C@@H](CCCCN)NC(=O)[C@@H](CC(C)C)NC(=O)[C@@H](C)NC(=O)[C@H](NC(=O)[C@@H](CCCCN)NC(=O)[C@@H](CC(C)C)NC(=O)[C@H](NC(=O)[C@@H](CCCCN)NC(=O)[C@@H](CCCCN)NC(=O)[C@@H](CCCCN)NC(=O)[C@@H](C)NC(=O)[C@@H](CCCCN)NC(=O)[C@@H](CO)NC(=O)[C@@H](Cc1ccccc1)NC(=O)[C@H](NC(=O)[C@@H](CCCCN)NC(=O)[C@@H](CC(C)C)NC(=O)[C@@H](Cc1ccccc1)NC(=O)[C@@H](CO)NC(=O)[C@@H](CCCCN)NC(=O)[C@@H](Cc1c[nH]c2ccccc12)NC(=O)[C@@H](CCCCN)NC(C)=O)[C@H](C)O)C(C)C)[C@H](C)O)C(=O)N[C@H](CO)C(=O)N[C@H](CCCCN)C(N)=O [Peptide D11, Ac-KWKSFLKTFSKAKKKVLKTALKAISK-amide] | 254 | 254.1 | 0.6 | 0.6 (≈ 1.83 µg/mL) | 0.6 | 14.0 (≈ 42.7 µg/mL) | 1.6 |  |  |  |  |  | 
CC[C@@H](C)[C@@H](NC(=O)[C@@H](C)NC(=O)[C@@H](CCCCN)NC(=O)[C@@H](CC(C)C)NC(=O)[C@@H](CC(C)C)NC(=O)[C@H](NC(=O)[C@@H](CCCCN)NC(=O)[C@@H](CC(C)C)NC(=O)[C@@H](CCCCN)NC(=O)[C@@H](CCCCN)NC(=O)[C@@H](CCCCN)NC(=O)[C@@H](CCCCN)NC(=O)[C@@H](C)NC(=O)[C@@H](CCCCN)NC(=O)[C@@H](CO)NC(=O)[C@@H](Cc1ccccc1)NC(=O)[C@H](NC(=O)[C@@H](CCCCN)NC(=O)[C@@H](CC(C)C)NC(=O)[C@@H](Cc1ccccc1)NC(=O)[C@@H](CO)NC(=O)[C@@H](CCCCN)NC(=O)[C@@H](Cc1c[nH]c2ccccc12)NC(=O)[C@@H](CCCCN)NC(C)=O)[C@H](C)O)[C@H](C)O)C(=O)N[C@H](CO)C(=O)N[C@H](CCCCN)C(N)=O [Peptide D14, Ac-KWKSFLKTFSKAKKKKLKTLLKAISK-amide] | 352 | 351.5 | 0.8 | 0.8 (≈ 2.5 µg/mL) | 0.8 | 40.1 (≈ 125 µg/mL) | 2.5 |  |  |  |  |  | 
CC(=O)N[C@H](CCCCN)C(=O)N[C@H](CC(C)C)C(=O)N[C@H](CCCCN)C(=O)N[C@H](CO)C(=O)N[C@H](CC(C)C)C(=O)N[C@H](CC(C)C)C(=O)N[C@H](CCCCN)C(=O)N[C@@H](C(=O)N[C@H](CC(C)C)C(=O)N[C@H](CO)C(=O)N[C@H](CCCCN)C(=O)N[C@H](C)C(=O)N[C@H](CCCCN)C(=O)N[C@H](CCCCN)C(=O)N[C@H](CCCCN)C(=O)N[C@H](CC(C)C)C(=O)N[C@H](CC(C)C)C(=O)N[C@H](CCCCN)C(=O)N[C@@H](C(=O)N[C@H](C)C(=O)N[C@H](CC(C)C)C(=O)N[C@H](CCCCN)C(=O)N[C@H](C)C(=O)N[C@H](CC(C)C)C(=O)N[C@H](CO)C(=O)N[C@H](CCCCN)C(N)=O)[C@H](C)O)[C@H](C)O [Peptide D15, Ac-KLKSLLKTLSKAKKKLLKTALKALSK-amide] |  | 169.6 | 0.5 | 0.5 (≈ 1.46 µg/mL) | 0.5 | 8.1 (≈ 23.7 µg/mL) | 1 | 170 | 170 |  |  |  | 
CC(=O)N[C@H](CCCCN)C(=O)N[C@H](CC(C)C)C(=O)N[C@H](CCCCN)C(=O)N[C@H](CO)C(=O)N[C@H](CC(C)C)C(=O)N[C@H](CC(C)C)C(=O)N[C@H](CCCCN)C(=O)N[C@@H](C(=O)N[C@H](CC(C)C)C(=O)N[C@H](CO)C(=O)N[C@H](CCCCN)C(=O)N[C@H](C)C(=O)N[C@H](CCCCN)C(=O)N[C@H](CCCCN)C(=O)N[C@H](CCCCN)C(=O)N[C@H](CCCCN)C(=O)N[C@H](CC(C)C)C(=O)N[C@H](CCCCN)C(=O)N[C@@H](C(=O)N[C@H](CC(C)C)C(=O)N[C@H](CC(C)C)C(=O)N[C@H](CCCCN)C(=O)N[C@H](C)C(=O)N[C@H](CC(C)C)C(=O)N[C@H](CO)C(=O)N[C@H](CCCCN)C(N)=O)[C@H](C)O)[C@H](C)O [Peptide D16, Ac-KLKSLLKTLSKAKKKKLKTLLKALSK-amide] | 1340 |  | 0.4 | 0.4 (≈ 1.19 µg/mL) | 0.4 | 48.3 (≈ 144 µg/mL) | 1.5 |  |  | 9.5 | ~3 |  | 
CC(=O)N[C@H](CCCCN)C(=O)N[C@H](CC(C)C)C(=O)N[C@H](CCCCN)C(=O)N[C@H](CO)C(=O)N[C@H](CC(C)C)C(=O)N[C@H](CC(C)C)C(=O)N[C@H](CCCCN)C(=O)N[C@@H](C(=O)N[C@H](CC(C)C)C(=O)N[C@H](CO)C(=O)N[C@H](CCCCN)C(=O)N[C@H](CC(C)C)C(=O)N[C@H](CCCCN)C(=O)N[C@H](CCCCN)C(=O)N[C@H](CCCCN)C(=O)N[C@H](CCCCN)C(=O)N[C@H](CC(C)C)C(=O)N[C@H](CCCCN)C(=O)N[C@@H](C(=O)N[C@H](CC(C)C)C(=O)N[C@H](CC(C)C)C(=O)N[C@H](CCCCN)C(=O)N[C@H](CC(C)C)C(=O)N[C@H](CC(C)C)C(=O)N[C@H](CO)C(=O)N[C@H](CCCCN)C(N)=O)[C@H](C)O)[C@H](C)O [Peptide D24, Ac-KLKSLLKTLSKLKKKKLKTLLKLLSK-amide] |  | 123 |  |  | 1.9 |  | 3.9 |  |  |  |  |  | 
Ac-ELEKGGLEGEKGGKELEK-amide (Ac-ELEKGGLEGEKGGKELEK-NH2) [peptide C] |  |  |  |  |  |  |  |  |  |  |  | −3,950 | 
PLL: V681 with L-Leu at position 11 (polar face), SEQ ID NO:13 (KWKSFLKTFKLAVKTVLHTALKAISS) |  |  |  |  |  |  |  |  |  |  |  |  | −10,850
